Data: patent US20250270212A1, “CHIMERIC COMPOUNDS USEFUL IN TREATING DISEASES” (Padarn Therapeutics, Inc., priority 2021, published 2025)

These compounds were tested against recombinant PARP1 (AA662-1014) protein (Homo sapiens (Human), UniProt P09874) (assay: Tracer displacement fluorescence polarization assay). Conditions: displacement of AlexaFluor488 tracer from NAD+-binding site, PARP1 25 nM.
Procedure: Example B. Tracer Displacement Fluorescence Polarization Assays
Displacement of AlexaFlour488 marked tracer from the NAD+-binding site of recombinant PARP1 (AA662-1014) protein (OriGene, Cat #: AR09368PU-L) was measured in vitro using Fluorescence polarization assay. The reaction was carried out in assay buffer (50 mM TRIS-HCl pH 7.4-7.8, 150 mM NaCl, 10 mM MgCl2, 0.001% Triton-X). 2×PARP1 (final concentration 25 nM) was diluted in 1× Assay buffer and 10 μl of the solution per well was added into 384-well Black Non-Treated Reaction plate (Corning, Cat #4511). Plates were centrifuged for 1 min at 200 g. The compounds were prepared in a 384-well Diamond Well Plate (Axygen, Cat #P-384-120SQ-C-S) as 400× solutions in DMSO and were transferred into Reaction plate using the Biomek FX liquid handling system with intermediate dilution down to 10× working solution in assay buffer in a separate 384-well Diamond Well Plate (Axygen, Cat #P-384-120SQ-C-S) (2 μl per well). Plates were centrifuged for 1 min at 200 g and incubated for 15 min at room temperature in the dark. Then 8 μL per well of 2.5× Tracer AlexaFluor488 (final concentration 1 nM) diluted in 1× Assay buffer was added into Reaction plate. 1× Assay buffer was used to make blank samples for instrument calculations. Plates were incubated for 30 minutes at room temperature in the dark. Fluorescence polarization was measured using Microplate Reader (BMG, ClarioStar Plus). The % tracer displacement was used to calculate the IC50 values. The IC50 values are shown in Table A, wherein “A” corresponds to IC50<0.01 μM, “B” corresponds to 0.01 μM≤IC50<0.1 μM, “C” 0.1 μM≤IC50<[…], and “D” corresponds to […].

Chain of recombinant PARP1 (AA662-1014) protein (P09874 662-1014): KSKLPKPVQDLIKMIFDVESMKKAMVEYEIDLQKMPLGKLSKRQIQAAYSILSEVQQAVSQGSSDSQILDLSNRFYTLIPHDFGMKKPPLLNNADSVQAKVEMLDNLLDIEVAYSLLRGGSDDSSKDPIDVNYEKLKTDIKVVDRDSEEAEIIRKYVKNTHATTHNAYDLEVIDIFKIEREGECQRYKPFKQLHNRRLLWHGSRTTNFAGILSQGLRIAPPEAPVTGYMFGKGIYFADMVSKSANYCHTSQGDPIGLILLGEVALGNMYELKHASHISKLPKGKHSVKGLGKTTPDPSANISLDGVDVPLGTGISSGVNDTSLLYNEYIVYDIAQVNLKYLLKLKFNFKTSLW

SMILES	EC50
C=CCn1c(=O)c2cnc(N3CCN(C(=O)c4cc(Cc5n[nH]c(=O)c6ccccc56)ccc4F)CC3)nc2n1-c1cccc(C(C)(C)O)n1 [Compound 2, 4-{3-[(4-{2-Allyl-1-[6-(1-hydroxy-1-methylethyl)pyridin-2-yl]-3-oxo-2,3-dihydro-1H-pyrazolo[3,4-d]pyrimidin-6-yl}piperazin-1-yl)carbonyl]-4-fluorobenzyl}phthalazin-1(2H)-one]	0.01 to 0.1 µM
C=CCn1c(=O)c2cnc(NC3CCN(C(=O)c4cc(Cc5n[nH]c(=O)c6ccccc56)ccc4F)CC3)nc2n1-c1cccc(C(C)(C)O)n1 [Compound 4, 4-(3-{[4-({2-Allyl-1-[6-(1-hydroxy-1-methylethyl)pyridin-2-yl]-3-oxo-2,3-dihydro-1H-pyrazolo[3,4-d]pyrimidin-6-yl}amino)piperidin-1-yl]carbonyl}-4-fluorobenzyl)phthalazin-1(2H)-one]	0.1 to 1 µM
Cn1c(=O)c2cnc(N3CCN(C(=O)c4cc(Cc5n[nH]c(=O)c6ccccc56)ccc4F)CC3)nc2n1-c1ccccn1 [Compound 5, 4-(4-Fluoro-3-{[4-(2-methyl-3-oxo-1-pyridin-2-yl-2,3-dihydro-1H-pyrazolo[3,4-d]pyrimidin-6-yl)piperazin-1-yl]carbonyl}benzyl)phthalazin-1(21)-one]	0.01 to 0.1 µM
C=CCn1c(=O)c2cnc(NCCNC(=O)c3cc(Cc4n[nH]c(=O)c5ccccc45)ccc3F)nc2n1-c1cccc(C(C)(C)O)n1 [Compound 6, N-[2-({2-Allyl-1-[6-(1-hydroxy-1-methylethyl)pyridin-2-yl]-3-oxo-2,3-dihydro-1H-pyrazolo[3,4-d]pyrimidin-6-yl}amino)ethyl]-2-fluoro-5-[(4-oxo-3,4-dihydrophthalazin-1-yl)methyl]benzamide]	0.1 to 1 µM
Cn1c(=O)c2cnc(Nc3ccc(N4CCN(C(=O)c5cc(Cc6n[nH]c(=O)c7ccccc67)ccc5F)CC4)cc3)nc2n1-c1cccc(C(C)(C)O)n1 [Compound 7, 4-[4-Fluoro-3-({4-[4-({1-[6-(1-hydroxy-1-methylethyl)pyridin-2-yl]-2-methyl-3-oxo-2,3-dihydro-1H-pyrazolo[3,4-d]pyrimidin-6-yl}amino)phenyl]piperazin-1-yl}carbonyl)benzyl]phthalazin-1(2H)-one]	< 0.01 µM
Cn1c(=O)c2cnc(Nc3ccc(N4CCN(Cc5cc(Cc6n[nH]c(=O)c7ccccc67)ccc5F)CC4)cc3)nc2n1-c1cccc(C(C)(C)O)n1 [Compound 8, 4-[4-Fluoro-3-({4-[4-({1-[6-(1-hydroxy-1-methylethyl)pyridin-2-yl]-2-methyl-3-oxo-2,3-dihydro-1H-pyrazolo[3,4-d]pyrimidin-6-yl}amino)phenyl]piperazin-1-yl}methyl)benzyl]phthalazin-1(2H)-one]	0.1 to 1 µM

The next lines start with the values.

EC50	SMILES
< 0.01 µM	Cn1c2nc(Nc3ccc(N4CCN(C(=O)c5cc(Cc6n[nH]c(=O)c7ccccc67)ccc5F)CC4)cc3)ncc2c(=O)n1-c1ccccn1 [Compound 12, 4-{4-Fluoro-3-[(4-{4-[(1-methyl-3-oxo-2-pyridin-2-yl-2,3-dihydro-1H-pyrazolo[3,4-d]pyrimidin-6-yl)amino]phenyl}piperazin-1-yl)carbonyl]benzyl}phthalazin-1(2H)-one]
< 0.01 µM	Cn1c2nc(Nc3ccc(N4CCN(C(=O)c5cc(Cn6c(=O)[nH]c(=O)c7c(F)cccc76)ccc5F)CC4)cc3)ncc2c(=O)n1-c1ccccn1 [Compound 17, 5-Fluoro-1-{4-fluoro-3-[(4-{4-[(1-methyl-3-oxo-2-pyridin-2-yl-2,3-dihydro-1H-pyrazolo[3,4-d]pyrimidin-6-yl)amino]phenyl}piperazin-1-yl)carbonyl]benzyl}quinazoline-2,4(1H,3H)-dione]
< 0.01 µM	C=CCn1c(=O)c2cnc(Nc3ccc(N4CCN(C(=O)c5cc(Cn6c(=O)[nH]c(=O)c7c(F)cccc76)ccc5F)CC4)cc3)nc2n1-c1ccccn1 [Compound 28, 1-{3-[(4-{4-[(2-Allyl-3-oxo-1-pyridin-2-yl-2,3-dihydro-1H-pyrazolo[3,4-d]pyrimidin-6-yl)amino]phenyl}piperazin-1-yl)carbonyl]-4-fluorobenzyl}-5-fluoroquinazoline-2,4(1H,3H)-dione]
0.1 to 1 µM	C=CCn1c(=O)c2cnc(Nc3ccc(N4CCN(Cc5cc(Cn6c(=O)[nH]c(=O)c7c(F)cccc76)ccc5F)CC4)cc3)nc2n1-c1cccc(C(C)(C)O)n1 [Compound 34, 1-[3-({4-[4-({2-Allyl-1-[6-(1-hydroxy-1-methylethyl)pyridin-2-yl]-3-oxo-2,3-dihydro-1H-pyrazolo[3,4-d]pyrimidin-6-yl}amino)phenyl]piperazin-1-yl}methyl)-4-fluorobenzyl]-5-fluoroquinazoline-2,4(1H,3H)-dione]
0.01 to 0.1 µM	C=CCn1c(=O)c2cnc(Nc3ccc(N4CCN(Cc5ccc(-c6[nH]c7cc(F)cc8c7c6CCNC8=O)cc5)CC4)cc3)nc2n1-c1ccccn1 [Compound 39, 2-[4-[[4-[4-[[2-Allyl-3-oxo-1-(2-pyridyl)pyrazolo[3,4-d]pyrimidin-6-yl]amino]phenyl]piperazin-1-yl]methyl]phenyl]-6-fluoro-3,10-diazatricyclo[6.4.1.04,13]trideca-1,4,6,8(13)-tetraen-9-one]
< 0.01 µM	C=CCn1c(=O)c2cnc(NC3CCN(Cc4ccc(-c5[nH]c6cc(F)cc7c6c5CCNC7=O)cc4)CC3)nc2n1-c1cccc(C(C)(C)O)n1 [Compound 47, 2-(4-{[4-({2-Allyl-1-[6-(1-hydroxy-1-methylethyl)pyridin-2-yl]-3-oxo-2,3-dihydro-1H-pyrazolo[3,4-d]pyrimidin-6-yl}amino)piperidin-1-yl]methyl}phenyl)-8-fluoro-1,3,4,5-tetrahydro-6H-azepino[5,4,3-cd]indol-6-one]
0.01 to 0.1 µM	Cn1c2nc(Nc3ccc(N4CCC(c5nc6cccc(C(N)=O)c6[nH]5)CC4)cc3)ncc2c(=O)n1-c1ccccn1 [Compound 91]
